The test system of data set [1] is Candida albicans 9.1. The data set can be described thus: Sensitivity of clinical isolates to conventional antimycotics (broth dilution MIC). The following applies: Candida albicans, 9.1, read-out: MICs.
Data set [2] deals with Candida albicans v47a3. The data set is described as above. To be noted: V47A3, read-out: MICs.
The test system of data set [3] is C. albicans ATCC 18804. The data set is described as follows: microbe, parasite or virus in culture. The class given is cell-based. An excerpt:
(§1) Antifungal activity of the recombinant peptides was studied against collection strains of Candida albicans ATCC 18804 and ATCC 10231, clinical isolates of C. albicans v47a3 and 9.1, clinical isolates of C. krusei 225/2, C. glabrata 252/2 and C. tropicalis v13a4/2 isolated from the patients with human immunodeficiency virus (HIV) infection and provided by the G.N. Gabrichevsky Research Institute for Epidemiology and Microbiology (Moscow, Russia). C. albicans ATCC 18804 and v47a3, C. krusei 225/2, C. glabrata 252/2 and C. tropicalis v13a4/2 were characterized as sensitive to antimycotics yeast strains, while C. albicans ATCC 10231 and 9.1 were resistant to azoles. C. albicans ATCC 10231 was also resistant to anidulafungin (Supplementary Materials, Tables S4 and S6).
(§2) The study was carried out in Sabouraud broth using 96-well microplates. Yeast cells at a concentration of 4 × 10^4 cells/mL were mixed with equal volumes of two-fold dilutions of peptides in water, starting with a maximum concentration of 32 μM. Control wells without peptides were also used. Microplates were incubated at 30 °C for 24 h after that yeast growth was estimated using an inverted microscope and by measuring the optical density at 630 nm. MIC was defined as minimal peptide concentration, inhibiting fungal growth by 100%. To determine whether the peptides act fungicidal or fungistatic, the contents of the wells of the plate with peptide concentrations equal to MIC and higher were sown on Sabouraud agar and incubated at 37 °C for 24 h. MFC was defined as minimal peptide concentration, ensuring the death of all fungal cells. FI was defined as the fungicide index, equal to the MFC/MIC ratio and indicating the severity of the fungicidal action of the peptide. […] Either 150 mM NaCl, 1.25 mM MgCl2, 1.25 mM CaCl2 or 10% fetal bovine serum (FBS) was added to Sabouraud broth to estimate the influence of various salts and serum on the antifungal activity of peptides tested.

Test in data set [4]: not given
This is another data set of the same source.

Data set [5] relates to C. albicans ATCC 10231. The class given is cell-based. The following applies: ATCC 10231, 24 h.
Source text: as §1, §2

In data set [6] the test system is C. albicans v47a. The data set is classed as cell-based. The following applies: 24 h.
Source text: as §1, §2

Data set [7] has as its system C. tropicalis v13a4/2. The class given is cell-based. The following applies: v13a4/2, 24 h.
Source text: as §1, §2

For data set [8], the system named is C. albicans 9.1. The data set is classed as cell-based. To be noted: 9.1, 24 h.
Source text: as §1, §2

For data set [9], the system named is C. glabrata 252/2. The data set is classed as cell-based. The following applies: 252/2, 24 h.
Source text: as §1, §2

Data set [10] concerns C. krusei 225/2. The data set is classed as cell-based. To be noted: 225/2, 24 h.
Source text: as §1, §2

The target in data set [11] is pepsin (Sus scrofa, UniProt P00791). To be noted: 50 ng pepsin per 1 μg peptide, 0.05 M HCl pH~1.3, peptide 0.5 mg/mL, 37 °C, after 2 h, SDS-PAGE densitometry.
Method: Gastric digestion was performed using 50 ng of pepsin per 1 μg of acidocin A in 0.05 M HCl (pH~1.3). […] The concentration of the peptide was 0.5 mg/mL in both cases. The reaction mixtures were incubated at 37 °C for 2 h and the aliquots were taken at 5 min, 30 min and 2 h after the start of incubation, immediately mixed with the sample buffer containing 4% SDS, and heated for 5 min at 80 °C to ensure protease inactivation. The degree of proteolysis was monitored by Laemmli SDS-PAGE in 18%T 3%C polyacrylamide gels by applying a volume of the mixture containing 1.5 μg of the peptide per lane.
Data set [12] has as its system human red blood cells. More on the design: method as in PMID 36557160. To be noted: cited from earlier work.

Values after ≈ are worked out from the molar mass of the structure shown. Values joined by “and” are separate entries in the source; they are usually repeats but may differ in a detail not shown here. Equal entries are not always repeated. Where two headings read alike, the source gives them in different places. Starred links: 1 amine or outer side, 2 acyl side, 3 side chain; linkers in the order of their positions; H or OH if unused. Positions of bridges follow the written chain, without caps; N, C: chain ends. Non-standard residues stand in square brackets, D forms with d. Residues, ends and D or L forms follow the SMILES beside them. No end group written: not given here. *: point of attachment. hTyr(3S-OH,4S-OH,3'-OSO3H) = N[C@H](C(=O)O)[C@H](O)[C@@H](O)c1ccc(O)c(OS(=O)(=O)O)c1; pTerphenylCO(4''-OnC5H11) = CCCCCOc1ccc(-c2ccc(-c3ccc(C(=O)*)cc3)cc2)cc1; Orn(4R-OH,5R-OH) = O=C([C@H](C[C@@H](O)[C@@H](O)N[*:3])N[*:1])[*:2]; hTyr(3S-OH,4S-OH) = N[C@H](C(=O)O)[C@H](O)[C@@H](O)c1ccc(O)cc1; Pro(3S-OH,4S-Me) = C[C@H]1CN[C@H](C(=O)O)[C@H]1O; X1 = CCCCCOc1ccc(-c2cc(-c3ccc(C(=O)*)cc3)no2)cc1; Gln(3R-OH) = NC(=O)C[C@@H](O)[C@H](N)C(=O)O; Hyp = O=C(O)[C@@H]1C[C@@H](O)CN1

Chain of pepsin (P00791 60-385): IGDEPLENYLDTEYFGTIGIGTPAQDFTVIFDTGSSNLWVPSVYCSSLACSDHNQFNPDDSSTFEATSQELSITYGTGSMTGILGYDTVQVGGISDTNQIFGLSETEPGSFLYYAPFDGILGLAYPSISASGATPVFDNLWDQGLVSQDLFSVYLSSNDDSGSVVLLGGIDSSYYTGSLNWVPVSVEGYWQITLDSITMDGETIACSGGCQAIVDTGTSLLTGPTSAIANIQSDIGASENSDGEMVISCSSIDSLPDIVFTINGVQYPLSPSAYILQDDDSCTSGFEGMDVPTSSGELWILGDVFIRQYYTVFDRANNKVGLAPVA

Take `OC(Cn1cncn1)(Cn1cncn1)c1ccc(F)cc1F` [Fluconazole]: the MIC in [1] was 256 µg/mL (≈ 836 µM); in data set [2], 8 µg/mL (≈ 26.1 µM).
For the compound `CC[C@@H]([C@H](C)O)n1ncn(-c2ccc(N3CCN(c4ccc(OC[C@@H]5CO[C@@](Cn6cncn6)(c6ccc(F)cc6F)C5)cc4)CC3)cc2)c1=O` [Posaconazole], the MIC in [1] was found to be 8 µg/mL (≈ 11.4 µM); in [2] it was 0.12 µg/mL (≈ 0.171 µM).
For the compound `C[C@@H]1[C@H](O)[C@@H](C)/C=C/C=C/C=C/C=C/C=C/C=C/C=C/[C@H](O[C@@H]2O[C@H](C)[C@@H](O)[C@H](N)[C@@H]2O)C[C@@H]2O[C@](O)(C[C@@H](O)C[C@@H](O)[C@H](O)CC[C@@H](O)C[C@@H](O)CC(=O)O[C@H]1C)C[C@H](O)[C@H]2C(=O)O` [Amphotericin B, reference compound], the MIC in data set [1] is 1 µg/mL (≈ 1.08 µM); in [3] (Candida albicans, ATCC18804, C. albicans ATCC 18804, wells previously blocked with 0.1% BSA, read-out: MIC) it was 0.5 µg/mL; in data set [2] it was 0.5 µg/mL (≈ 0.541 µM). Besides, the “concentration with fungicidal effect (2 × MIC)” value in data set [3] (C. albicans ATCC 18804, antifungal activity assay) amounted to 1 µg/mL.
Consider `CCCCCOc1ccc(-c2cc(-c3ccc(C(=O)N[C@H]4C[C@@H](O)[C@@H](O)NC(=O)[C@@H]5[C@@H](O)[C@@H](C)CN5C(=O)[C@H]([C@H](O)CC(N)=O)NC(=O)[C@H]([C@H](O)[C@@H](O)c5ccc(O)c(OS(=O)(=O)O)c5)NC(=O)[C@@H]5C[C@@H](O)CN5C(=O)[C@H]([C@@H](C)O)NC4=O)cc3)no2)cc1` [Micafungin] (X1-[Orn(4R-OH,5R-OH)]T[Hyp][hTyr(3S-OH,4S-OH,3'-OSO3H)][Gln(3R-OH)][Pro(3S-OH,4S-Me)]; lactam 1-C), for which the MIC worked out at 0.015 µg/mL (≈ 0.0118 µM) in [1] and 0.008 µg/mL (≈ 0.0063 µM) in data set [2].
As for `CC[C@H](C)C[C@H](C)CCCCCCCCC(=O)N[C@H]1C[C@@H](O)[C@@H](NCCN)NC(=O)[C@@H]2[C@@H](O)CCN2C(=O)[C@H]([C@H](O)CCN)NC(=O)[C@H]([C@H](O)[C@@H](O)c2ccc(O)cc2)NC(=O)[C@@H]2C[C@@H](O)CN2C(=O)[C@H]([C@@H](C)O)NC1=O` [Caspofungin], the results for the MIC in data set [1] and in data set [2] were 0.12 µg/mL (≈ 0.11 µM) and 0.06 µg/mL (≈ 0.0549 µM), respectively.
With “KTHYPTNAWKSLWKGFWESLRYTDGF [Acidocin 8912]”, the β-Turn was 23.9% and 17% and 22.4%. For the same compound, the Random in [4] is 28.9% and 31.2% and 20.3%. Moreover, in data set [3] (ATCC 18804, 24 h), the MFC is more than 32 µM and the MIC was 32 µM. In data set [5], this compound displayed an MFC of 32 µM and an MIC of 16 µM. Further, in data set [6], the MFC was more than 32 µM and the MIC worked out at 16 µM. In [7], the MFC turned out to be 16 µM and the MIC was determined as 16 µM. In [8], the MFC was 32 µM and the MIC came out at 16 µM. In data set [9], this compound displayed an MFC of 16 µM and an MIC of 16 µM. In data set [10], this compound came in with an MFC of 32 µM and an MIC of 32 µM.
`Nc1[nH]c(=O)ncc1F` [Flucytosine]: the MIC in data set [1] and in data set [2] was 0.06 µg/mL (≈ 0.465 µM) each time.
As to `C[C@@H](c1ncncc1F)[C@](O)(Cn1cncn1)c1ccc(F)cc1F` [Voriconazole], the MIC in data set [1] worked out at 8 µg/mL (≈ 22.9 µM); in data set [2], 0.5 µg/mL (≈ 1.43 µM).
On to `CCCCCOc1ccc(-c2ccc(-c3ccc(C(=O)N[C@H]4C[C@@H](O)[C@@H](O)NC(=O)[C@@H]5[C@@H](O)[C@@H](C)CN5C(=O)[C@H]([C@@H](C)O)NC(=O)[C@H]([C@H](O)[C@@H](O)c5ccc(O)cc5)NC(=O)[C@@H]5C[C@@H](O)CN5C(=O)[C@H]([C@@H](C)O)NC4=O)cc3)cc2)cc1` [Anidulafungin] ({pTerphenylCO(4''-OnC5H11)}-[Orn(4R-OH,5R-OH)]T[Hyp][hTyr(3S-OH,4S-OH)]T[Pro(3S-OH,4S-Me)]; lactam 1-C), for which the values for the MIC in data set [1] and in data set [2] were 0.06 µg/mL (≈ 0.0526 µM) and 0.03 µg/mL (≈ 0.0263 µM), respectively.
For the compound `CCC(C)n1ncn(-c2ccc(N3CCN(c4ccc(OCC5COC(Cn6cncn6)(c6ccc(Cl)cc6Cl)O5)cc4)CC3)cc2)c1=O` (stereo not drawn) [Itraconazole], the MIC in data set [1] is 16 µg/mL (≈ 22.7 µM); in [2] it was 0.12 µg/mL (≈ 0.17 µM).
Regarding “KTYYGTNGVHCTKKSLWGKVRLKNVIPGTLCRKQSLPIKQDLKILLGWATGAFGKTFH (disulfide 11-31) [Acidocin A]”, the β-Turn (cited from earlier work) was 20.3% and 19.2% and 22.6%. Also, in data set [11], the “resistance to pepsin (amount remaining)” value is reported as “more than half of the initial amount was retained”. Besides, the Random in data set [4] (cited from earlier work) was 28.6% and 37.9% and 28.8%. For the same compound, the MFC was 8 µM in data set [3] (ATCC 18804, 24 h); 16 µM in [5]; 4 µM in [6]; 4 µM in data set [7]; 16 µM in [8]; 4 µM in [9]. Besides, in data set [10], the MFC is 8 µM. Moreover, the MIC in data set [3] (ATCC 18804, 24 h) was 4 µM; in data set [5], 8 µM; in [6], 4 µM; in data set [7], 4 µM; in data set [8], 4 µM; in data set [9], 4 µM. Besides, the MIC in [10] came to 8 µM. In data set [12], the HC10 was more than 128 µM.

Source of the values: article PMC11432624.
